Data set [1] has as its system human reconstructed epidermis model EpiDerm™. The experiment in a line: Extended skin irritation test in reconstructed human epidermis (EpiDerm), 2 and 7 days. In kind it is cell-based. The settings on record: for Il-1α in culture medium: medium after the first 24 hours. The method, then: In order to perform extended skin irritation (safety) tests on the reconstructed human epidermis, the exposure time to the tested compounds was extended to 2 and 7 days in the human reconstructed epidermis model EpiDerm™ from MatTek. The epidermis was cultured according to the manufacturer's recommendations, using appropriate multi-well plates and culture media. Solutions of the tested compounds were applied to the epidermis using a positive displacement pipette and distributed using a sterile glass bulb headed Pasteur pipette. […] The epidermis was cultured in an incubator ensuring appropriate humidity, temperature (37 °C) and CO2 concentration (5%). The medium was replaced daily. After an appropriate incubation time, i.e. 2 days or 7 days, the epidermis was rinsed with sterile DPBS and incubated with MTT (Thiazolyl Blue Tetrazolium bromide) solution at 37 °C for 3 hours. After this time, a purple color of formazan was observed, correlated with tissue viability. […] Moreover, in the medium collected after the first 24 hours of EpiDerm epidermis culture, the level of interleukin 1α (Il-1α), which is a mediator of inflammation, was determined. Its level correlates with the unfavorable (irritating) effect of the tested substances on the epidermis. The level of IL-1α was determined using the Cayman Elisa test. […] Table 6. Viability results and results of interleukin 1α concentration measurement in the culture medium in the irritation test in the reconstructed human epidermis model EpiDerm.

In data set [2] the test system is Chinese hamster ovary cell line (CHO-K1). The data set can be described thus: Genotoxicity in the micronucleus test in CHO-K1 cells. In kind it is cell-based.
A short description of data set [3]: Lipophilicity coefficient RM0 by reversed phase thin layer chromatography. The class given is physicochemical. The settings on record: RP-18 TLC, methanol / 100 mM phosphate buffer pH = 7.4. The procedure, abridged:
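Reversed-phase TLC on RP-18 F254 silica, with methanol/100 mM phosphate buffer pH 7.4 mobile phases of 95–65% (v/v) methanol, at room temperature, in duplicate. Spots were visualized under UV at 254 nm. RM = log(1/Rf − 1) was plotted linearly against methanol content to derive RM0.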

Data set [4] relates to S. typhimurium TA1535. The experiment in a line: Ames microplate test, TA1535.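 Also: bacteria exposed to compound 90 min at 37 °C, then kept 48 h at 37 °C with indicator medium in 384-well plates, scoring wells that turned yellow.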
The subject of data set [5] is tyrosinase from mushroom. The data set can be described thus: Inhibition of commercial mushroom tyrosinase (L-DOPA or L-tyrosine substrate). The class given is biochemical. The method, boiled down: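 Tyrosinase (1U/well or 3U/well) in 50 mM phosphate buffer pH 6.8 with compound at final 500, 250 or 125 µM; L-DOPA (diphenolase) or L-tyrosine (monophenolase) added in separate runs. Absorbance at 475 nm after 25 min; % inhibition versus DMSO control.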

For data set [6], the system named is B16-F10 murine melanoma cell line. The experiment in a line: Cytotoxicity in B16-F10 cells (MTT). In kind it is cell-based. The following applies: 48 h. The procedure, abridged:
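Cells in F10-Ham with 1% FBS exposed to various compound concentrations for 48 h after 24 h pre-culture. MTT read-out: formazan dissolved in DMSO, absorbance at 570 nm. Viability expressed as percent of DMSO control (AT/AC×100).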

Where [7] appears, read: 2 days, 1.0% in 50% PEG (10 µL).
[8] abbreviates: 7 days, 1.0% in 50% PEG (10 µL).
Where [9] appears, read: L-DOPA, read-out: Tyrosinase inhibition with L-DOPA, IC50.
[10] abbreviates: L-tyrosine, read-out: Tyrosinase inhibition with L-tyrosine, IC50.

Where two headings read alike, the source gives them in different places.

Turning to `O=C(/C=C/c1ccccc1)NCCCCCO` [Compound A-133, (2E)-N-(5-hydroxypentyl)-3-phenylprop-2-enamide], in data set [1] (1.0% in 50% PEG (10 µL)), the “Il-1α in culture medium” value is 34.99 ± 1.17 pg/mL. In addition, the “Viability [% of control, mean±SD]” value in data set [1] (setting [7]) is given as 107.19±7.45 % of control; in data set [1] (setting [8]), 107.26±21.82 % of control. The entries for the “DB (dicentric bridges in 1000 binucleate cells)” value (“DB” for short) in data set [2] (100 µM), in data set [2] (150 µM) and in data set [2] (200 µM) were 3.8 ± 2.8, 3.7 ± 2.3 and 3.3 ± 1.4, respectively. For the same compound, the “MN (number of micronuclei in 1000 binucleate cells)” value (“MN” for short) worked out at 7.8 ± 2.9 in data set [2] (100 µM), 6.0 ± 1.9 in data set [2] (150 µM) and 6.8 ± 3.2 in data set [2] (200 µM). Moreover, the “NB (nuclear buds in 1000 binucleate cells)” value (“NB” for short) in data set [2] (100 µM) is 6.3 ± 3.7; in data set [2] (150 µM) it was 4.5 ± 3.3; in data set [2] (200 µM) it was 4.7 ± 1.8. For the same compound, the “NDI (nuclear division index)” value was 1.64 in data set [2] (100 µM), 1.65 in data set [2] (150 µM) and 1.66 in data set [2] (200 µM). This compound showed an RM0 in data set [3] of 2.15. In addition, the “Increase in the number of yellow wells compared to the reference level” value (shortened to “Increase in the number of yellow wells”) in data set [4] (0.5 mM, +S9) came out at 0.47; in data set [4] (0.5 mM, without S9), 0.92; in data set [4] (1.0 mM, +S9) it was 0.23; in data set [4] (1.0 mM, without S9), 0.55; in data set [4] (2.0 mM, +S9) it was 0.35; in data set [4] (2.0 mM, without S9), 1.10. Besides, the “Tyrosinase inhibition with L-DOPA [%]” value in data set [5] (L-DOPA) is on record as 47.96±1.83% (500 µM). For the same compound, the figures for the IC50 in data set [5] (setting [9]) and in data set [5] (setting [10]) were 523 µM and 450 µM, respectively. Moreover, in data set [5] (L-tyrosine), the “Tyrosinase inhibition with L-tyrosine [%]” value is listed as 58.56±4.58% (500 µM). Also, the “Cytotoxicity study in B16F10 cells % viability” value was found to be 101.7% in data set [6] (150 µM), 94.9% in data set [6] (200 µM) and 95.6% in data set [6] (250 µM).

Turning to `O=C(/C=C/c1ccc(Cl)cc1)NCCCCCO` [Compound A-111, (2E)-3-(4-chlorophenyl)-N-(5-hydroxypentyl)prop-2-enamide], the “Il-1α in culture medium” value in data set [1] (1.0% in 50% PEG (10 µL)) was 15.89 ± .057 pg/mL. Also, the “Viability [% of control, mean±SD]” value in data set [1] (2 days, 0.1% in 50% PEG (10 µL)) is listed as 88.42±1.25 % of control; in data set [1] (2 days, 0.5% in 50% PEG (10 µL)), 92.02±3.47 % of control; in data set [1] (setting [7]) it was 98.56±11.78 % of control; in data set [1] (7 days, 0.1% in 50% PEG (10 µL)), 107.77±3.12 % of control; in data set [1] (7 days, 0.5% in 50% PEG (10 µL)) it was 113.85±4.03 % of control; in data set [1] (setting [8]) it was 100.41±1.52 % of control. The “DB” value was determined as 2.5 ± 0.7 in data set [2] (100 µM), 4.0 ± 2.8 in data set [2] (150 µM) and 2.0 ± 2.8 in data set [2] (200 µM). The “MN” value in data set [2] (100 µM) is on record as 4.5 ± 3.5; in data set [2] (150 µM) it was 9.0 ± 5.7; in data set [2] (200 µM), 10.0 ± 4.2. In addition, the “NB” value in data set [2] (100 µM) worked out at 2.0 ± 2.8; in data set [2] (150 µM), 6.0 ± 1.0; in data set [2] (200 µM) it was 2.5 ± 0.7. In addition, the “NDI (nuclear division index)” value in data set [2] (100 µM) is recorded as 1.60; in data set [2] (150 µM), 1.64; in data set [2] (200 µM) it was 1.64. The compound further yielded an RM0 in data set [3] of 2.79. Moreover, the “Increase in the number of yellow wells” value in data set [4] (0.5 mM, +S9) was 0.58; in data set [4] (0.5 mM, without S9), 0.55; in data set [4] (1.0 mM, +S9), 0.35; in data set [4] (1.0 mM, without S9), 0.18; in data set [4] (2.0 mM, +S9) it was 0.23; in data set [4] (2.0 mM, without S9) it was 1.65. Further, the “Tyrosinase inhibition with L-DOPA [%]” value in data set [5] (L-DOPA, 250 µM) is recorded as 59.94±1.56% (250 µM). The IC50 (usually the midpoint of a concentration-inhibition curve) in data set [5] (setting [9]) stood at 147 µM; in data set [5] (setting [10]), 37 µM. Further, the “Tyrosinase inhibition with L-tyrosine [%]” value in data set [5] (L-tyrosine) is reported as 88.98±0.98% (500 µM). Further, the “Cytotoxicity study in B16F10 cells % viability” value in data set [6] (150 µM) is listed as 88.2%; in data set [6] (200 µM) it was 95.6%; in data set [6] (250 µM) it was 89.7%.

Consider `O=C(/C=C/c1ccc(Cl)cc1)NCCO` [H-427/21, (2E)-3-(4-chlorophenyl)-N-(2-hydroxyethyl)prop-2-enamide], for which the RM0 in data set [3] is 1.93. Besides, the “Tyrosinase inhibition with L-DOPA [%]” value in data set [5] (L-DOPA) is recorded as 55.77±0.77% (500 µM). In addition, the IC50 in data set [5] (setting [9]) came out at 278 µM; in data set [5] (setting [10]), 196 µM. Besides, the “Tyrosinase inhibition with L-tyrosine [%]” value in data set [5] (L-tyrosine) is 67.45±2.66% (500 µM). The “Cytotoxicity study in B16F10 cells % viability” value in data set [6] (150 µM) is listed as 73.7%; in data set [6] (200 µM), 80.2%; in data set [6] (250 µM), 77.8%.

In data set [3], `O=C(/C=C/c1ccc(Cl)cc1)NCCCO` [H-330/21, (2E)-3-(4-chlorophenyl)-N-(3-hydroxypropyl)prop-2-enamide] displayed an RM0 of 1.94. In addition, in data set [5] (L-DOPA), the “Tyrosinase inhibition with L-DOPA [%]” value is 55.32±1.39% (500 µM). The values for the concentration for half-maximal inhibition (IC50) in data set [5] (setting [9]) and in data set [5] (setting [10]) were 265 µM and 106 µM, respectively. In addition, in data set [5] (L-tyrosine), the “Tyrosinase inhibition with L-tyrosine [%]” value is 82.49±0.65% (500 µM). Moreover, the “Cytotoxicity study in B16F10 cells % viability” value in data set [6] (150 µM) was 78.6%; in data set [6] (200 µM), 82.9%; in data set [6] (250 µM) it was 83.9%.

On to `Cc1ccc(/C=C/C(=O)NCCCCCO)cc1` [H-415/21, (2E)-N-(5-hydroxypentyl)-3-(4-methylphenyl)prop-2-enamide], for which the results for the “DB” value in data set [2] (100 µM), in data set [2] (150 µM) and in data set [2] (200 µM) were 1.5 ± 0.7, 3.5 ± 2.1 and 2.5 ± 0.7, respectively. The “MN” value in data set [2] (100 µM) is on record as 12.5 ± 0.7; in data set [2] (150 µM), 12.0 ± 2.8; in data set [2] (200 µM), 11.5 ± 3.5. For the same compound, the “NB” value was found to be 5.0 ± 1.4 in data set [2] (100 µM), 5.5 ± 2.1 in data set [2] (150 µM) and 6.0 ± 1.4 in data set [2] (200 µM). Also, the “NDI (nuclear division index)” value was found to be 1.54 in data set [2] (100 µM), 1.50 in data set [2] (150 µM) and 1.52 in data set [2] (200 µM). In data set [3], this compound came in with an RM0 of 2.49. Besides, the “Increase in the number of yellow wells” value is given as 0.21 in data set [4] (0.5 mM, without S9); 0.41 in data set [4] (1.0 mM, without S9); 0.10 in data set [4] (2.0 mM, without S9). For the same compound, in data set [5] (L-DOPA), the “Tyrosinase inhibition with L-DOPA [%]” value is reported as 30.43±0.88% (500 µM). For the same compound, in data set [5] (L-tyrosine), the “Tyrosinase inhibition with L-tyrosine [%]” value is given as 25.04±5.67% (500 µM). Besides, the “Cytotoxicity study in B16F10 cells % viability” value in data set [6] (150 µM) came to 85.2%; in data set [6] (200 µM), 90.3%; in data set [6] (250 µM), 75.7%.

Source of the values: patent EP4324461A1, “(E)-N-CINAMOYLAMINOALKANOLES WITH MELANOGENESIS INHIBITORY ACTIVITY” (UNIWERSYTET JAGIELLONSKI, priority 2022, dated 2024).
